# Experimental data published in patent US9937262B2 (priority 2013, dated 2018).
# Read-outs that look alike come from different tables or passages of the source.
# Legend:
# [1] = human
# Method: At 37±0.5° C., the hydrolysis rate of the prodrugs was measured in 80% human plasma. An appropriate aliquot (20-100 μL) of 1 mg/ml prodrug solution in methanol was transferred to 5.0 ml of preheated plasma. At appropriate time intervals, 300 μl sample aliquots were withdrawn and transferred to 600 μl acetonitrile and mixed thoroughly. After centrifugation at 13500 rpm for 5 min, the supernatant was analyzed by HPLC for parent drug and remaining prodrug.
# [2] = Stability (cleavage to parent drug) of prodrug suspensions in PBS pH 7.4; assay type: physicochemical; conditions: for estimated pseudo first-order rate constant (khyd) for cleavage: PBS pH 7.4, 37° C., calculated from k0 and Sprodrug; for apparent pseudo-zero-order rate constant (k0): appearance of parent drug from suspension in PBS pH 7.4, 37° C.
# Method: Suspensions of the prodrugs in 67 mM phosphate buffer pH 7.4 (PBS) were prepared by adding 10 mL PBS to approximately 5 mg prodrug. The suspensions were kept unstirred at 37° C. in an incubator hood. At appropriate time intervals over 23 days, about 500 μL samples were taken and after filtration (disposable syringe filters), the solutions were analyzed immediately by HPLC for parent drug and remaining prodrug. Quantitation of parent drug and prodrug was done from peak area measurements in relations to those of standards analysed by HPLC at the same conditions. […] Reversed phase chromatography was performed using a C18 Gemini® RP column (150×4.6 mm, 5 μm particles) (Phenomenex, Torrance, Calif., USA) equipped with a SecurityGuard precolumn (Phenomenex, Torrance, Calif., USA). The flow rate was set at 1 mL/min and the column effluent was monitored at 230 nm. The mobile phase consisted of 35% (v/v) acetonitrile and 65% (v/v) of 0.1% (v/v) phosphoric acid pH 3.2. The retention times varied in the range of 3 to 30 min.
# From the observed relatively stable concentration of dissolved prodrugs measured in the suspensions after 8-9 day up to 23 days, the solubilities of the prodrugs (Sprodrug) were determined. In this time interval, the rate of appearance of parent drug was determined and an apparent pseudo-zero-order rate constant (k0) was obtained. By assuming that the dissolution rates were much faster than the conversion of the prodrugs to the parent drug, pseudo first-order rate constants (khyd) for cleavage of the prodrugs were calculated according to:
# [3] = Solubility of the prodrugs in PBS (67 mM phosphate buffer pH 7.4) at 37° C.; assay type: physicochemical; conditions: 67 mM phosphate buffer pH 7.4 (PBS), aqueous buffer, thermodynamic from solid, read-out: Sprodrug ± SD
# Method: The determination of the solubility of a prodrug at different pH values of interest according to the present invention is carried by adding excess solid prodrug to a container containing a buffer solution with well-defined pH. The mixture is rotated at constant temperature until an equilibrium between solid prodrug and prodrug in solution has established (that is until the prodrug concentration in the supernatant remains constant). At each measurement the pH of the supernatant is controlled and eventually adjusted to the desired pH.
# Suspensions of the prodrugs in 67 mM phosphate buffer pH 7.4 (PBS) were prepared by adding 10 mL PBS to approximately 5 mg prodrug. The suspensions were kept unstirred at 37° C. in an incubator hood. At appropriate time intervals over 23 days, about 500 μL samples were taken and after filtration (disposable syringe filters), the solutions were analyzed immediately by HPLC for parent drug and remaining prodrug. Quantitation of parent drug and prodrug was done from peak area measurements in relations to those of standards analysed by HPLC at the same conditions. […] The flow rate was set at 1 mL/min and the column effluent was monitored at 230 nm. […]
# From the observed relatively stable concentration of dissolved prodrugs measured in the suspensions after 8-9 day up to 23 days, the solubilities of the prodrugs (Sprodrug) were determined. […]
# [4] = Solubility of DPX-2-0006 at pH 3 in the presence of N,N-dimethyl acetamide (DMA); assay type: physicochemical; conditions: aqueous with cosolvent or surfactant or cyclodextrin, thermodynamic from solid, acidic suspension (pH 3), 37° C.
# Method: A suspension of DPX-2-0006 was formed by adding 10 mg to 3 mL demineralized water, 0.05 mL 0.100 M HCl was added to obtain a pH of 3. After rotation of the suspension at 37° C. for 1 days, 0.5 mL sample was taken and after filtration (disposable syringe filters), the solution was diluted in methanol:water 1:1 and analyzed immediately by HPLC for prodrug. […] The HPLC method described in Example 29 was applied and the retention time of DPX-2-0006 was 14 min, respectively. N,N-dimethylacetamide (DMA) was added stepwise to the acidic suspension of DPX-2-0006 and the amount of DPX-2-0006 dissolved in the presence of various volumes of DMA was determined after 1-3 days rotation at 37° C. as described above.
# [5] = Precipitation on addition of acidic prodrug solution to 67 mM phosphate buffer pH 7.4; assay type: physicochemical; conditions: 1.0 mL concentrated aqueous solution pH 3.4 added to 1.0 mL 67 mM phosphate buffer pH 7.4
# Method: The pH in the suspension was measured to 7.0.
compound,measurement,setting,value
COc1ccc2cc(C(C)C(=O)OCCn3ccnc3)ccc2c1 (stereo not shown),t1/2 in plasma (hydrolysis),[1],1.07 h
"O=C(Cc1ccccc1Nc1c(Cl)cccc1Cl)OCCc1ccccn1 [DPX-1-0004, 2-(pyridin-2-yl)ethyl 2-(2-((2,6-dichlorophenyl)amino)phenyl)acetate]",estimated pseudo first-order rate constant (khyd) for cleavage,[2],0.15 day⁻¹
same,apparent pseudo-zero-order rate constant (k0),[2],1.1e-06 M/day
"O=C(Cc1ccccc1Nc1c(Cl)cccc1Cl)OCCn1cnc2ccccc21 [DPX-1-0006, 2-(1H-benzo[d]imidazol-1-yl)ethyl 2-(2-((2,6-dichlorophenyl)amino)phenyl)acetate]",estimated pseudo first-order rate constant (khyd) for cleavage,[2],0.17 day⁻¹
same,apparent pseudo-zero-order rate constant (k0),[2],2.4e-06 M/day
"O=C(Cc1ccccc1Nc1c(Cl)cccc1Cl)OCCn1ccnc1-c1ccccc1 [DPX-1-0007, 2-(2-phenyl-1H-imidazol-1-yl)ethyl 2-(2-((2,6-dichlorophenyl)amino)phenyl)acetate]",estimated pseudo first-order rate constant (khyd) for cleavage,[2],0.0029 day⁻¹
same,apparent pseudo-zero-order rate constant (k0),[2],2.5e-07 M/day
"COc1ccc2cc(C(C)C(=O)OCCc3ccccn3)ccc2c1 (stereo not shown) [DPX-2-0004, 2-(pyridin-2-yl)ethyl 2-(6-methoxynaphthalen-2-yl)propanoate]",estimated pseudo first-order rate constant (khyd) for cleavage,[2],0.033 day⁻¹
same,apparent pseudo-zero-order rate constant (k0),[2],1.7e-06 M/day
"COc1ccc2cc(C(C)C(=O)OCCn3cnc4ccccc43)ccc2c1 (stereo not shown) [DPX-2-0006, 2-(1H-benzo[d]imidazol-1-yl)ethyl 2-(6-methoxynaphthalen-2-yl)propanoate]",solubility thermodynamic,[3],5 ± 1 µg/mL
same,estimated pseudo first-order rate constant (khyd) for cleavage,[2],0.066 day⁻¹
same,apparent pseudo-zero-order rate constant (k0),[2],1e-06 M/day
same,solubility,"[4]; acidified demineralized water with 5% (v/v) DMA, 5% (v/v) DMA, read-out: solubility in the presence of 5% (v/v) DMA",250 µg/mL
same,solubility,"[4]; acidified demineralized water with 15% (v/v) DMA, 15% (v/v) DMA, read-out: solubility in the presence of 15% (v/v) DMA",350 µg/mL
same,solubility,"[4]; acidified demineralized water with 30% (v/v) DMA, 30% (v/v) DMA, read-out: solubility in the presence of 30% (v/v) DMA",570 µg/mL
same,solubility,"[4]; acidified demineralized water with 50% (v/v) DMA, 50% (v/v) DMA, read-out: solubility in the presence of 50% (v/v) DMA",2250 µg/mL
"COc1ccc2cc(C(C)C(=O)OCCn3ccnc3-c3ccccc3)ccc2c1 (stereo not shown) [DPX-2-0007, 2-(2-phenyl-1H-imidazol-1-yl)ethyl 2-(6-methoxynaphthalen-2-yl)propanoate]",estimated pseudo first-order rate constant (khyd) for cleavage,[2],0.065 day⁻¹
same,apparent pseudo-zero-order rate constant (k0),[2],1e-06 M/day
same,precipitation on mixing with buffer pH 7.4,[5],a precipitation was immediately observed
